Assay results as given in ChEMBL document CHEMBL1201862, “PubChem BioAssay data set” (2004).
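Results reflect a 48-hour exposure of cells in 96-well plates to compound at five concentrations. Abbreviation: GI50, concentration required for 50% inhibition of growth.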 Activity calls are given as the source filed them. Rule as the data show it: active = GI50 up to about 1.1 µM and inactive = higher.

Key:
Test in all cases: NCI-60 cell line screen, 48 h
SK-MEL-28 = tested on: SK-MEL-28
BT-549 = tested on: BT-549
SK-OV-3 = tested on: SK-OV-3
HL-60 = tested on: HL-60
OVCAR-3 = tested on: OVCAR-3
A498 = tested on: A498
UACC-257 = tested on: UACC-257
HCT-15 = tested on: HCT-15
SR = tested on: SR
LOX IMVI = tested on: LOX IMVI
COLO 205 = tested on: COLO 205
U-251 = tested on: U-251
SN12C = tested on: SN12C
K562 = tested on: K562
SW-620 = tested on: SW-620
A549 = tested on: A549
SNB-19 = tested on: SNB-19
SF-268 = tested on: SF-268
MDA-MB-435 = tested on: MDA-MB-435
NCI/ADR-RES = tested on: NCI/ADR-RES
NCI-H460 = tested on: NCI-H460
TK-10 = tested on: TK-10
NCI-H522 = tested on: NCI-H522
DU-145 = tested on: DU-145
IGROV-1 = tested on: IGROV-1
KM12 = tested on: KM12
OVCAR-4 = tested on: OVCAR-4
MOLT-4 = tested on: MOLT-4
M14 = tested on: M14
ACHN = tested on: ACHN
SNB-75 = tested on: SNB-75
Malme-3M = tested on: Malme-3M
Hs-578T = tested on: Hs-578T
UO-31 = tested on: UO-31
HT-29 = tested on: HT-29
MDA-N = tested on: MDA-N
MCF7 = tested on: MCF7
HOP-62 = tested on: HOP-62
HCC 2998 = tested on: HCC 2998
CCRF-CEM = tested on: CCRF-CEM
T47D = tested on: T47D
SF-295 = tested on: SF-295
NCI-H226 = tested on: NCI-H226
OVCAR-8 = tested on: OVCAR-8
EKVX = tested on: EKVX
RPMI-8226 = tested on: RPMI-8226
SK-MEL-5 = tested on: SK-MEL-5
HOP-92 = tested on: HOP-92
NCI-H23 = tested on: NCI-H23
MDA-MB-231 = tested on: MDA-MB-231
SK-MEL-2 = tested on: SK-MEL-2
HCT-116 = tested on: HCT-116
CAKI-1 = tested on: CAKI-1
PC-3 = tested on: PC-3
OVCAR-5 = tested on: OVCAR-5
786-0 = tested on: 786-0
RXF 393 = tested on: RXF 393
UACC-62 = tested on: UACC-62
SF-539 = tested on: SF-539
SNB-78 = tested on: SNB-78
M19-MEL = tested on: M19-MEL
KM-20L2 = tested on: KM-20L2
DMS-114 = tested on: DMS-114
LXFL 529 = tested on: LXFL 529
DMS-273 = tested on: DMS-273
DLD-1 = tested on: DLD-1

## OC(COc1ccccc1)CN1CCCCC1 (configuration not stated)
SK-MEL-28
  GI50: > 100 µM (inactive)
BT-549
  GI50: > 100 µM (inactive)
SK-OV-3
  GI50: > 100 µM (inactive)
HL-60
  GI50: > 100 µM (inactive)
OVCAR-3
  GI50: > 100 µM (inactive)
A498
  GI50: > 100 µM (inactive)
UACC-257
  GI50: > 100 µM (inactive)
HCT-15
  GI50: > 100 µM
SR
  GI50: > 100 µM (inactive)
LOX IMVI
  GI50: > 100 µM (inactive)
COLO 205
  GI50: > 100 µM (inactive)
U-251
  GI50: > 100 µM (inactive)
SN12C
  GI50: > 100 µM (inactive)
K562
  GI50: > 100 µM (inactive)
SW-620
  GI50: > 100 µM (inactive)
A549
  GI50: > 100 µM (inactive)
SNB-19
  GI50: > 100 µM (inactive)
SF-268
  GI50: > 100 µM (inactive)
MDA-MB-435
  GI50: > 100 µM (inactive)
NCI/ADR-RES
  GI50: > 100 µM (inactive)
NCI-H460
  GI50: > 100 µM (inactive)
TK-10
  GI50: > 100 µM (inactive)
NCI-H522
  GI50: > 100 µM (inactive)
DU-145
  GI50: > 100 µM (inactive)
IGROV-1
  GI50: > 100 µM (inactive)
KM12
  GI50: > 100 µM (inactive)
OVCAR-4
  GI50: > 100 µM (inactive)
MOLT-4
  GI50: > 100 µM (inactive)
M14
  GI50: > 100 µM (inactive)
ACHN
  GI50: > 100 µM (inactive)
SNB-75
  GI50: > 100 µM (inactive)
Malme-3M
  GI50: > 100 µM (inactive)
Hs-578T
  GI50: > 100 µM (inactive)
UO-31
  GI50: > 100 µM (inactive)
HT-29
  GI50: > 100 µM (inactive)
MDA-N
  GI50: > 100 µM (inactive)
MCF7
  GI50: > 100 µM (inactive)
HOP-62
  GI50: > 100 µM (inactive)
HCC 2998
  GI50: > 100 µM (inactive)
CCRF-CEM
  GI50: > 100 µM (inactive)
T47D
  GI50: > 100 µM (inactive)
SF-295
  GI50: > 100 µM (inactive)
NCI-H226
  GI50: > 100 µM (inactive)
OVCAR-8
  GI50: > 100 µM (inactive)
EKVX
  GI50: 63.4 µM (inactive)
RPMI-8226
  GI50: > 100 µM (inactive)
SK-MEL-5
  GI50: > 100 µM (inactive)
HOP-92
  GI50: > 100 µM (inactive)
NCI-H23
  GI50: > 100 µM (inactive)
MDA-MB-231
  GI50: > 100 µM (inactive)
SK-MEL-2
  GI50: > 100 µM (inactive)
HCT-116
  GI50: > 100 µM (inactive)
CAKI-1
  GI50: > 100 µM (inactive)
PC-3
  GI50: > 100 µM (inactive)
OVCAR-5
  GI50: > 100 µM (inactive)
786-0
  GI50: > 100 µM (inactive)
RXF 393
  GI50: > 100 µM (inactive)
UACC-62
  GI50: > 100 µM (inactive)
SF-539
  GI50: > 100 µM (inactive)

## CSCC(COC(C)=O)(CSC)c1ccncc1
SNB-78
  GI50: > 100 µM (inactive)
SK-MEL-28
  GI50: > 100 µM (inactive)
SK-OV-3
  GI50: > 100 µM (inactive)
HL-60
  GI50: > 100 µM (inactive)
OVCAR-3
  GI50: > 100 µM (inactive)
A498
  GI50: > 100 µM (inactive)
UACC-257
  GI50: > 100 µM (inactive)
HCT-15
  GI50: > 100 µM
SR
  GI50: > 100 µM (inactive)
LOX IMVI
  GI50: > 100 µM (inactive)
COLO 205
  GI50: > 100 µM (inactive)
U-251
  GI50: > 100 µM (inactive)
SN12C
  GI50: > 100 µM (inactive)
M19-MEL
  GI50: > 100 µM (inactive)
K562
  GI50: > 100 µM (inactive)
SW-620
  GI50: > 100 µM (inactive)
A549
  GI50: > 100 µM (inactive)
SNB-19
  GI50: > 100 µM (inactive)
SF-268
  GI50: > 100 µM (inactive)
NCI-H460
  GI50: > 100 µM (inactive)
KM-20L2
  GI50: > 100 µM (inactive)
TK-10
  GI50: > 100 µM (inactive)
NCI-H522
  GI50: > 100 µM (inactive)
IGROV-1
  GI50: > 100 µM (inactive)
KM12
  GI50: > 100 µM (inactive)
OVCAR-4
  GI50: > 100 µM (inactive)
MOLT-4
  GI50: > 100 µM (inactive)
DMS-114
  GI50: > 100 µM (inactive)
LXFL 529
  GI50: > 100 µM (inactive)
M14
  GI50: > 100 µM (inactive)
ACHN
  GI50: > 100 µM (inactive)
SNB-75
  GI50: 85.7 µM (inactive)
Malme-3M
  GI50: > 100 µM (inactive)
UO-31
  GI50: > 100 µM (inactive)
HT-29
  GI50: > 100 µM (inactive)
HOP-62
  GI50: > 100 µM (inactive)
HCC 2998
  GI50: > 100 µM (inactive)
CCRF-CEM
  GI50: > 100 µM (inactive)
SF-295
  GI50: > 100 µM (inactive)
OVCAR-8
  GI50: > 100 µM (inactive)
EKVX
  GI50: > 100 µM (inactive)
RPMI-8226
  GI50: > 100 µM (inactive)
SK-MEL-5
  GI50: 53.6 µM (inactive)
NCI-H23
  GI50: > 100 µM (inactive)
SK-MEL-2
  GI50: > 100 µM (inactive)
HCT-116
  GI50: > 100 µM (inactive)
CAKI-1
  GI50: > 100 µM (inactive)
786-0
  GI50: > 100 µM (inactive)
RXF 393
  GI50: > 100 µM (inactive)
UACC-62
  GI50: > 100 µM (inactive)
SF-539
  GI50: > 100 µM (inactive)
DMS-273
  GI50: > 100 µM (inactive)

## O=C(O)CCSC(=O)Nc1ccc([N+](=O)[O-])cc1
SNB-78
  GI50: > 100 µM (inactive)
SK-MEL-28
  GI50: > 100 µM (inactive)
HL-60
  GI50: > 100 µM (inactive)
OVCAR-3
  GI50: > 100 µM (inactive)
A498
  GI50: > 100 µM (inactive)
UACC-257
  GI50: > 100 µM (inactive)
HCT-15
  GI50: > 100 µM
SR
  GI50: > 100 µM (inactive)
LOX IMVI
  GI50: > 100 µM (inactive)
COLO 205
  GI50: > 100 µM (inactive)
U-251
  GI50: > 100 µM (inactive)
SN12C
  GI50: > 100 µM (inactive)
K562
  GI50: > 100 µM (inactive)
SW-620
  GI50: > 100 µM (inactive)
A549
  GI50: > 100 µM (inactive)
SNB-19
  GI50: > 100 µM (inactive)
SF-268
  GI50: > 100 µM (inactive)
NCI-H460
  GI50: > 100 µM (inactive)
TK-10
  GI50: > 100 µM (inactive)
IGROV-1
  GI50: 72.8 µM (inactive)
KM12
  GI50: > 100 µM (inactive)
OVCAR-4
  GI50: > 100 µM (inactive)
MOLT-4
  GI50: > 100 µM (inactive)
DMS-114
  GI50: > 100 µM (inactive)
LXFL 529
  GI50: > 100 µM (inactive)
M14
  GI50: > 100 µM (inactive)
ACHN
  GI50: > 100 µM (inactive)
SNB-75
  GI50: 19.4 µM (inactive)
UO-31
  GI50: > 100 µM (inactive)
HT-29
  GI50: > 100 µM (inactive)
DLD-1
  GI50: > 100 µM (inactive)
HOP-62
  GI50: > 100 µM (inactive)
HCC 2998
  GI50: > 100 µM (inactive)
CCRF-CEM
  GI50: > 100 µM (inactive)
SF-295
  GI50: > 100 µM (inactive)
OVCAR-8
  GI50: > 100 µM (inactive)
EKVX
  GI50: > 100 µM (inactive)
RPMI-8226
  GI50: > 100 µM (inactive)
NCI-H23
  GI50: > 100 µM (inactive)
SK-MEL-2
  GI50: > 100 µM (inactive)
HCT-116
  GI50: > 100 µM (inactive)
CAKI-1
  GI50: > 100 µM (inactive)
786-0
  GI50: > 100 µM (inactive)
RXF 393
  GI50: > 100 µM (inactive)
SF-539
  GI50: > 100 µM (inactive)
DMS-273
  GI50: > 100 µM (inactive)
